In PMC9967700, “Metabolism-Guided Optimization of Tryptophanol-Derived Isoindolinone p53 Activators” (Pharmaceuticals, 2023):

Legend:
[1] = Human liver microsomes incubations: half-life and intrinsic clearance; type: in vitro ADME
Description: For the generation of Phase I metabolites: tested compounds, at a 10 μM concentration (1 μL of 5 mM DMSO stock solution), were incubated with HLM (1 mg protein/mL), Vivid® regenerating system (5 μL) and NADPH (1mM) in ABIC 50 mM buffer pH 7.4, for a total incubation volume of 500 μL. Incubations were run in duplicate, at 37 °C. Aliquots were collected at 0, 5, 10, 20, 30, 40, 50, 60, 75, 90, 120, 180 min and reactions were stopped by adding and ice-cold solution of reserpine (2.5 μM) in acetonitrile. Additional aliquots were taken at 0 and 120 min and subsequently treated with L-lysine (100 µM) and sodium cyanoborohydride (10 µM) or glutathione (100 µM). Following centrifugation (10,000 rpm, 15 min, RT), the clear supernatants were collected and analyzed LC-ESI-HRMS/MS. Control incubations were conducted in the same conditions: (1) using DMSO as negative control, in absence of the test drug; (2) using heat-denatured HLM (90 °C, 15 min); (3) using nevirapine, as a positive control, instead of the tested compound; and (4) in absence of NADPH co-factor.
The in vitro depletion half-lives of tested compounds t1/2 were calculated using Equation (1), assuming that testing compounds follow a first-order kinetic trend. The “slope” was determined from linear fitting of the natural logarithm of the concentration of drug remaining plotted against time:(1) t1/2=ln2/slope
The intrinsic clearance in HLM (CLint, HLM) was calculated using Equation (2):(2) CLint HLM =ln2/ t1/2 x mL incubation/mg microsomes x 45 mg microsomes/g liver x 26 g liver/Kg b.w.

HCT116 p53+/+ cells = test: Antiproliferative activity, sulforhodamine B (SRB) assay; type: cell-based, human
Description: Tumor cells were cultured in RPMI-1640 with UltraGlutamine (Lonza, VWR), supplemented with 10% fetal bovine serum (FBS; Gibco, Alfagene) and maintained in a humidified incubator at 37 °C with 5% CO2. Cell lines were seeded in 96-well plates at the cells/well density of 5.0 × 10^3.

[2] = biological target: T1, wt p53 core domain (DNA Binding Domain; p53DBD; residues 94–312) (Homo sapiens, UniProt P04637); test: Differential scanning fluorimetry (DSF) thermostability; details: 13d 2.5 mM, MQ 2 mM; for Tm of the wt p53DBD: 5% DMSO, mean ± SD, three assays
T1 construct: residues 94–312; host or cells: E. coli BL21 (DE3)-[pLys-S]
T1 sequence (P04637 94-312): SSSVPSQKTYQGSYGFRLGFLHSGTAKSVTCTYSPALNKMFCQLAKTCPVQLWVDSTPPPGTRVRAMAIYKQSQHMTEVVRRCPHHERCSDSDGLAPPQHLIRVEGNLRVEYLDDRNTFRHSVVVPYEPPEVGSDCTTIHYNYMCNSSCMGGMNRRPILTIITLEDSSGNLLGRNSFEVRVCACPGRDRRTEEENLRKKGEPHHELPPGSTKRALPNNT
Description: Expression of wt p53 core domain. The wt p53DBD was expressed in E. coli BL21 (DE3)-[pLys-S] in fusion with an N-terminal 21-residue tag containing the hexa-histidyl peptide (His6) and the thrombin recognition sequence, using the pET15b-based expression construct.
For protein expression 10 mL of an overnight (ON) culture was used to inoculate 1 L of LB medium supplemented with 1 mL of ampicillin 100 mg/mL and 1mL of zinc sulphate 100 mM. Culture medium was incubated at 37 °C, 140 rpm till an OD600nm of ~0.5. Protein expression was then induced by adding 0.5 mL of isopropyl β-D-1-thiogalactopyranoside (IPTG) 1M (Cfinal = 0.5 mM) and bacterial growth at 27 °C, 120 rpm ON. E. coli cells were pelleted by centrifugation for 10 min, 4000 rpm, at 4 °C. The cellular pellet was resuspended in 10 mL of Lysis buffer (Sodium phosphate 50 mM; NaCl 300 mM; glycerol 10%, pH 7.4) supplemented with 1mg/mL Lysozyme (Biochemica Applichem Panreac), 1 mM of phenylmethanesulfonyl fluoride (PMSF) (Merck), 5 µg of DNAse I (Panreac applichem) and 0.8% of Triton X-100 (Merck). After a first step of chemical lysis (30 min incubation, at 4 °C), cells were further disrupted by four cycles of sonication, at 4 °C, during 60 s at 50% duty free cycle on a Vibra Cell (Media Cibernetics). The lysate was subsequently cleared by centrifugation at 10,000 rpm, 40 min, at 4 °C and the supernatant containing the soluble proteins were collected.
Purification of human wt p53DBD and His6-tag removal. Immobilized Metal Affinity Chromatography (IMAC) was performed to purify the wt p53DBD using a nickel-nitrilotriacetic acid (Ni-NTA) agarose resin (QIAGEN). Briefly, 1 mL of Ni^2+ resin was pre-equilibrated using MilliQ water (3 × 1 mL) and Lysis buffer containing 10 mM imidazole (3 × 1 mL). The soluble fraction of cellular lysate was supplemented with 6.8 µL of β-mercaptoethanol and 33.2 µL of imidazole 3 M to obtain the final concentrations of […] and 10 mM, respectively. The lysate was added to the pre-equilibrated resin and protein binding was performed by incubation on an orbital shaker for one hour at 4 °C. The suspension was added to a 9 cm polypropylene conical column (Poly-Prep columns; BioRad) and protein purification was performed by gravity flow with an imidazole gradient consisting of three washing steps (2 × 5 mL of Lysis buffer, 20 mM imidazole; 2 × 5 mL of Lysis buffer, 50 mM imidazole; and 1 × 2.5 mL Lysis buffer, 75 mM imidazole) and an elution step with 5 × 500 µL of Lysis buffer, 250 mM imidazole. Protein eluted fractions were assessed by SDS-PAGE and Coomassie staining. Size exclusion chromatography was performed on the pooled protein eluted fractions, using an AKTA prime plus system (GE Healthcare) equipped with a UV detector (280 nm), a HiLoad 16/60, Superdex 200 prep grade column (GE Healthcare) and SEC buffer (25 mM potassium phosphate buffer, 150 mM NaCl, pH 7.5). The fractions corresponding to the wt p53DBD monomers were collected and treated with thrombin (8 units of thrombin/mg wt p53DBD). The thrombin cleavage was conducted for 18 h at rt at pH 7.4 in the assay buffer recommended by the supplier. Before and after digestion protein concentration was determined through Bradford method.
Thermostability of wt p53DBD core domain assessed by differential scanning fluorimetry (DSF). An amount of 5 μg of thrombin-cleaved wt p53DBD was incubated with testing compounds (2.5 mM) in 25 mM potassium phosphate buffer and 150 mM NaCl, pH 7.5 in a final volume of 50 µL containing 2 µL of 1 mM DTT or 1 mM TCEP to promote p53 core domain redox control, and Sypro Orange at 2.5x final concentration. The fluorescence was assessed on a C1000 Touch thermal cycler equipped with a CFX96 optical reaction module (BioRad) and the FRET channel (λexc 450–490 nm and λem 560–580 nm). Temperature was ramped from 20 to 90 °C with a rate of 0.2 °C/12 sec. The Tm values were calculated using Origin 8 Software. […]

Intrinsic Clearance ([1]; HLM, calculated from half-life (Equation 2)): 5.5 mL/min/kg | clearance classification ([1]; HLM, classification after ref 32): low clearance | half-life at 10 μM ([1]; human, liver microsomes, pH 7.4, HLM 1 mg protein/mL, 10 μM, NADPH, 37 °C): 1.53 h | GI50 (HCT116 p53+/+ cells; Homo sapiens, HCT-116, 48 h treatment, mean ± SEM of 3–5 independent experiments, read-out: HCT116 p53+/+ GI50): 4 ± 0.5 µM | ΔTm of the wt p53DBD ([2]; DTT 1 mM): did not increase the wt p53DBD Tm | Tm of the wt p53DBD ([2]; DTT (1 mM)): 40.51 ± 0.09 °C | ΔTm at 2500 µM ([2]; TCEP 1 mM): 10.4 °C | ΔTm of the wt p53DBD ([2]; TCEP 1 mM): 10.4 °C | Tm of the wt p53DBD ([2]; TCEP (1 mM)): 51.38 ± 0.38 °C
SMILES: CCCn1c(Br)c(C[C@H]2CO[C@]3(c4ccccc4)c4ccccc4C(=O)N23)c2ccccc21 [Compound 13d, (3S, 9bR)-3-((2-bromo-1-propyl-1H-indol-3-yl)methyl)-9b-phenyl-2,3-dihydrooxazolo[2,3-a]isoindol-5(9bH)-one]
more active than SLMP53-2 (7) (HCT116 p53+/+ cells; HCT116 p53+/+): 2 fold | S.I. (selectivity index) (HCT116 p53+/+ cells; HCT116 p53−/− versus HCT116 p53+/+): 1.9
